In patent US7629002B2, “Antimicrobial polymeric compositions and method of treatment using them” (Chemeq Ltd., priority 2000, dated 2009):

How the values were obtained:
S. aureus = experiment: MKC of preservatives and synergy (Example 14); assay type: cell-based
Procedure: (§1) Overnight broths of challenge cultures were prepared and the Total Viable Count (TVC) of the overnight cultures was estimated.
(§2) The samples were serially diluted 1 to 1 using sterile normal saline (5 mL). Sterile Hard Water (SHW) was used as diluent when testing samples containing EDTA.
(§3) 1 part of each overnight culture was diluted in 9 parts diluent. The resulting diluted suspensions were used as the inocula.
(§4) Inoculate each sample dilution with 100 μL of the diluted overnight culture. (One culture per tube). Mix well.
(§5) The tubes were incubated for ≦24 hours at 37° C. (A. niger was incubated at 28° C. for ≦24 hours).
(§6) From each test tube, 1 mL was subcultured into 9 mL of recovery broth and mixed well (Recovery Broths: Nutrient Broth+3% Tween 80 (NBT) for polymeric antimicrobial and EDTA; Nutrient Broth+3% Tween 80+(NBTA) for glutaraldehyde and, Letheen Broth (LB) for methyl parabens).
(§7) The samples incubated at 37° C. for a further ≦48 hours. (28° C. for ≦5 days for A niger).
(§8) Each tube was examined for growth. All tubes were then subcultured onto selective agar and incubated for ≦24 hours at 37° C. (28° C. for ≦5 days for A. niger). Growth on selective agar was taken to confirm growth of the test organism.

E. coli = experiment: MKC of preservatives and synergy (Example 14); assay type: cell-based
Procedure: as §1, §2, §3, §4, §5, §6, §7, §8

P. aeruginosa = experiment: MKC of preservatives and synergy (Example 14); assay type: cell-based
Procedure: as §1, §2, §3, §4, §5, §6, §7, §8

C. albicans = experiment: MKC of preservatives and synergy (Example 14); assay type: cell-based; conditions: polymer 0.2% w/w, mix as ratio
Procedure: as §1, §2, §3, §4, §5, §6, §7, §8

A. niger = experiment: MKC of preservatives and synergy (Example 14); assay type: cell-based; conditions: polymer 0.2% w/w
Procedure: as §1, §2, §3, §4, §5, §6, §7, §8

[1] = in vivo
Description: Chickens treated each of the antimicrobials were compared with a control group according to the following procedure:
In each trial 20 Cob chickens (Line 53), day old were purchased from a commercial hatchery. They were weighed, sexed and randomly assigned into adjacent pens in a room of an isolated animal house. There was an even distribution of male and female chickens. Water and feed were available ad libitum. The diet was a commercial crumble (Chick Starter, Milne Feeds: 18% crude protein) with a coccidiostat present (125 ppm Dinitolomide).
Ten chickens were administered the formulation of 0.1% w/w of normally activated antimicrobial from Example 10a in the water for 14 days through static drinkers; dose rate of 30 mg/kg/day. The other ten chickens were the Control Group.
Both groups of chickens were weighed on days 0, 4, 7, 11 and 14. At the completion of the trial all chickens were euthanised, and the treated chickens were autopsied post mortem. A thorough gross examination of the thoracic and abdominal cavities was performed.

Compound: O=C(O)CN(CCN(CC(=O)O)CC(=O)O)CC(=O)O [EDTA]
- MKC (S. aureus; inoculum 1.3 × 10^9 cfu/mL, polymer 0.2% w/w, EDTA 0.1% w/w, mix as ratio): >1000
- MKC (E. coli; inoculum 1.0 × 10^9 cfu/mL, polymer 0.2% w/w, EDTA 0.1% w/w, mix as ratio): >1000
- MKC (P. aeruginosa; inoculum 9.4 × 10^8 cfu/mL, polymer 0.2% w/w, EDTA 0.1% w/w, mix as ratio): 1000
- MKC (C. albicans; inoculum 3.2 × 10^6 cfu/mL, EDTA 0.1% w/w): 1000
- MKC (A. niger; inoculum 3.0 × 10^7 cfu/mL, EDTA 0.1% w/w, mix as ratio polymeric antimicrobial:preservative): >1000

Compound: O=CCCCC=O [Glutaraldehyde]
- MKC (S. aureus; inoculum 1.5 × 10^9 cfu/mL, polymer 0.025% w/w, Glutaraldehyde 0.025% w/w): 7
- MKC (E. coli; inoculum 1.6 × 10^9 cfu/mL, polymer 0.025% w/w, Glutaraldehyde 0.025% w/w): 3.5
- MKC (P. aeruginosa; inoculum 1.9 × 10^9 cfu/mL, polymer 0.025% w/w, Glutaraldehyde 0.025% w/w): 31
- MKC (C. albicans; inoculum 3.0 × 10^6 cfu/mL, Glutaraldehyde 0.025% w/w): 125
- MKC (A. niger; inoculum 3.3 × 10^7 cfu/mL, Glutaraldehyde 0.025% w/w start solutions, mix as ratio polymeric antimicrobial:preservative): >250

Compound: COC(=O)c1ccc(O)cc1 [Methyl Paraben]
- MKC (S. aureus; inoculum 1.3 × 10^9 cfu/mL, polymer 0.2% w/w, Methyl Paraben 1% w/w, in 80% w/w glycerol, mix as ratio): 2500
- MKC (E. coli; inoculum 9.6 × 10^8 cfu/mL, polymer 0.2% w/w, Methyl Paraben 1% w/w, in 80% w/w glycerol, mix as ratio): 2500
- MKC (P. aeruginosa; inoculum 1.8 × 10^9 cfu/mL, polymer 0.2% w/w, Methyl Paraben 1% w/w, in 80% w/w glycerol, mix as ratio): 1250
- MKC (C. albicans; inoculum 1.1 × 10^7 cfu/mL, Methyl Paraben 1% w/w, in 80% w/w glycerol): 1250
- MKC (A. niger; inoculum 2.2 × 10^7 cfu/mL, Methyl Paraben 1% w/w, in 80% w/w glycerol, mix as ratio): 10000

Compound: poly(2-propenal, 2-propenoic acid) [Example 10a]
- clinical or pathological signs of toxicity at gross examination post-mortem [1]: no clinical or pathological signs of toxicity were evident
